Measured values taken from ChEMBL document CHEMBL3885881, “DrugMatrix”.

Organism: Rattus norvegicus
Assay: DrugMatrix - Regimen: Daily Repeat
Type: toxicity, organism-based, Sprague-Dawley
Set-up: regimen Daily Repeat, gender Male, age 6-8 weeks
Settings: in vivo, sc, route subcutaneous, vehicle 100 % WATER; for ABSOLUTE BASOPHIL / ABSOLUTE EOSINOPHIL / ABSOLUTE LYMPHOCYTE / ABSOLUTE MONOCYTE / ABSOLUTE SEGMENTED NEUTROPHIL / BASOPHIL / EOSINOPHIL / ERYTHROCYTE COUNT / HEMATOCRIT / HEMOGLOBIN / LEUKOCYTE COUNT / LYMPHOCYTE / MEAN CORPUSCULAR HEMOGLOBIN / MEAN CORPUSCULAR HEMOGLOBIN CONCENTRATION / MEAN CORPUSCULAR VOLUME / MONOCYTE / NEUTROPHIL / NUCLEATED RED BLOOD CELLS / PLATELET COUNT: tissue Blood; for ALANINE AMINOTRANSFERASE / ALBUMIN / ALKALINE PHOSPHATASE / ASPARTATE AMINOTRANSFERASE / BLOOD UREA NITROGEN / CARBON DIOXIDE / CHLORIDE / CHOLESTEROL / CREATINE PHOSPHOKINASE / CREATININE / GLUCOSE / LACTATE DEHYDROGENASE / LIPASE / PHOSPHORUS / POTASSIUM / SODIUM / TOTAL BILIRUBIN / TOTAL PROTEIN / URIC ACID: tissue Plasma
[1] = 20 mg/kg, 72 h, dose level Low, time 3 day
[2] = 20 mg/kg, 120 h, dose level Low, time 5 day
[3] = 71 mg/kg, 72 h, dose level High, time 3 day
[4] = 71 mg/kg, 120 h, dose level High, time 5 day

SMILES: CCN(CC)CC(=O)Nc1c(C)cccc1C [LIDOCAINE]
- ABSOLUTE BASOPHIL [1]: 0 CELLS/uL
- ABSOLUTE EOSINOPHIL [1]: 58 CELLS/uL
- ABSOLUTE LYMPHOCYTE [1]: 13101.33 CELLS/uL
- ABSOLUTE MONOCYTE [1]: 107 CELLS/uL
- ABSOLUTE SEGMENTED NEUTROPHIL [1]: 1100.33 CELLS/uL
- BASOPHIL [1]: 0%
- EOSINOPHIL [1]: 0.33%
- ERYTHROCYTE COUNT [1]: 5.32 x10E6/uL
- HEMATOCRIT [1]: 35.17%
- HEMOGLOBIN [1]: 13.77 G/DL
- LEUKOCYTE COUNT [1]: 14.37 x10E3/uL
- LYMPHOCYTE [1]: 91.33%
- MEAN CORPUSCULAR HEMOGLOBIN [1]: 25.9 pg
- MEAN CORPUSCULAR HEMOGLOBIN CONCENTRATION [1]: 39.17 G/DL
- MEAN CORPUSCULAR VOLUME [1]: 66.2 fL
- MONOCYTE [1]: 0.67%
- NEUTROPHIL [1]: 7.67%
- NUCLEATED RED BLOOD CELLS [1]: 0 /100WBC
- PLATELET COUNT [1]: 1245 x10E3/uL
- ALANINE AMINOTRANSFERASE [1]: 52.67 u/L
- ALBUMIN [1]: 4.23 G/DL
- ALKALINE PHOSPHATASE [1]: 369 u/L
- ASPARTATE AMINOTRANSFERASE [1]: 87.33 u/L
- BLOOD UREA NITROGEN [1]: 16 mg/dL
- CARBON DIOXIDE [1]: 26.67 mmol/L
- CHLORIDE [1]: 102.67 MEQ/L
- CHOLESTEROL [1]: 79.33 mg/dL
- CREATINE PHOSPHOKINASE [1]: 215.67 u/L
- CREATININE [1]: 0.21 mg/dL
- GLUCOSE [1]: 154.67 mg/dL
- LACTATE DEHYDROGENASE [1]: 355.67 u/L
- LIPASE [1]: 9.67 u/L
- PHOSPHORUS [1]: 15.3 mg/dL
- POTASSIUM [1]: 7.3 MEQ/L
- SODIUM [1]: 148.67 MEQ/L
- TOTAL BILIRUBIN [1]: 0.23 mg/dL
- TOTAL PROTEIN [1]: 6.03 G/DL
- URIC ACID [1]: 1.9 mg/dL
- ABSOLUTE BASOPHIL [2]: 0 CELLS/uL
- ABSOLUTE EOSINOPHIL [2]: 102.67 CELLS/uL
- ABSOLUTE LYMPHOCYTE [2]: 14629.33 CELLS/uL
- ABSOLUTE MONOCYTE [2]: 338.67 CELLS/uL
- ABSOLUTE SEGMENTED NEUTROPHIL [2]: 1862.67 CELLS/uL
- BASOPHIL [2]: 0%
- EOSINOPHIL [2]: 0.67%
- ERYTHROCYTE COUNT [2]: 5.48 x10E6/uL
- HEMATOCRIT [2]: 33.93%
- HEMOGLOBIN [2]: 13.57 G/DL
- LEUKOCYTE COUNT [2]: 16.93 x10E3/uL
- LYMPHOCYTE [2]: 86.67%
- MEAN CORPUSCULAR HEMOGLOBIN [2]: 24.77 pg
- MEAN CORPUSCULAR HEMOGLOBIN CONCENTRATION [2]: 40 G/DL
- MEAN CORPUSCULAR VOLUME [2]: 61.93 fL
- MONOCYTE [2]: 2%
- NEUTROPHIL [2]: 10.67%
- NUCLEATED RED BLOOD CELLS [2]: 0 /100WBC
- PLATELET COUNT [2]: 1256.33 x10E3/uL
- ALANINE AMINOTRANSFERASE [2]: 59.33 u/L
- ALBUMIN [2]: 3.73 G/DL
- ALKALINE PHOSPHATASE [2]: 375.67 u/L
- ASPARTATE AMINOTRANSFERASE [2]: 92 u/L
- BLOOD UREA NITROGEN [2]: 17.67 mg/dL
- CARBON DIOXIDE [2]: 26 mmol/L
- CHLORIDE [2]: 108 MEQ/L
- CHOLESTEROL [2]: 77.33 mg/dL
- CREATINE PHOSPHOKINASE [2]: 284 u/L
- CREATININE [2]: 0.28 mg/dL
- GLUCOSE [2]: 183.33 mg/dL
- LACTATE DEHYDROGENASE [2]: 154.67 u/L
- LIPASE [2]: 7.67 u/L
- PHOSPHORUS [2]: 13.6 mg/dL
- POTASSIUM [2]: 6.31 MEQ/L
- SODIUM [2]: 149.97 MEQ/L
- TOTAL BILIRUBIN [2]: 0.2 mg/dL
- TOTAL PROTEIN [2]: 5.93 G/DL
- URIC ACID [2]: 2.2 mg/dL
- ABSOLUTE BASOPHIL [3]: 0 CELLS/uL
- ABSOLUTE EOSINOPHIL [3]: 49.33 CELLS/uL
- ABSOLUTE LYMPHOCYTE [3]: 11993.67 CELLS/uL
- ABSOLUTE MONOCYTE [3]: 172.33 CELLS/uL
- ABSOLUTE SEGMENTED NEUTROPHIL [3]: 684.67 CELLS/uL
- BASOPHIL [3]: 0%
- EOSINOPHIL [3]: 0.33%
- ERYTHROCYTE COUNT [3]: 5.73 x10E6/uL
- HEMATOCRIT [3]: 35.87%
- HEMOGLOBIN [3]: 14.23 G/DL
- LEUKOCYTE COUNT [3]: 12.9 x10E3/uL
- LYMPHOCYTE [3]: 92.67%
- MEAN CORPUSCULAR HEMOGLOBIN [3]: 24.83 pg
- MEAN CORPUSCULAR HEMOGLOBIN CONCENTRATION [3]: 39.7 G/DL
- MEAN CORPUSCULAR VOLUME [3]: 62.57 fL
- MONOCYTE [3]: 1.33%
- NEUTROPHIL [3]: 5.67%
- NUCLEATED RED BLOOD CELLS [3]: 0 /100WBC
- PLATELET COUNT [3]: 1268.67 x10E3/uL
- ALANINE AMINOTRANSFERASE [3]: 46.33 u/L
- ALBUMIN [3]: 4.37 G/DL
- ALKALINE PHOSPHATASE [3]: 401 u/L
- ASPARTATE AMINOTRANSFERASE [3]: 83.67 u/L
- BLOOD UREA NITROGEN [3]: 14.67 mg/dL
- CARBON DIOXIDE [3]: 31.33 mmol/L
- CHLORIDE [3]: 101 MEQ/L
- CHOLESTEROL [3]: 76 mg/dL
- CREATINE PHOSPHOKINASE [3]: 167 u/L
- CREATININE [3]: 0.16 mg/dL
- GLUCOSE [3]: 163.67 mg/dL
- LACTATE DEHYDROGENASE [3]: 124.67 u/L
- LIPASE [3]: 8.67 u/L
- PHOSPHORUS [3]: 15.9 mg/dL
- POTASSIUM [3]: 7.01 MEQ/L
- SODIUM [3]: 145.9 MEQ/L
- TOTAL BILIRUBIN [3]: 0.17 mg/dL
- TOTAL PROTEIN [3]: 6.07 G/DL
- URIC ACID [3]: 1.8 mg/dL
- ABSOLUTE BASOPHIL [4]: 0 CELLS/uL
- ABSOLUTE EOSINOPHIL [4]: 73.33 CELLS/uL
- ABSOLUTE LYMPHOCYTE [4]: 17902.33 CELLS/uL
- ABSOLUTE MONOCYTE [4]: 276 CELLS/uL
- ABSOLUTE SEGMENTED NEUTROPHIL [4]: 1781.67 CELLS/uL
- BASOPHIL [4]: 0%
- EOSINOPHIL [4]: 0.33%
- ERYTHROCYTE COUNT [4]: 5.66 x10E6/uL
- HEMATOCRIT [4]: 36.7%
- HEMOGLOBIN [4]: 14.53 G/DL
- LEUKOCYTE COUNT [4]: 20.03 x10E3/uL
- LYMPHOCYTE [4]: 89%
- MEAN CORPUSCULAR HEMOGLOBIN [4]: 25.67 pg
- MEAN CORPUSCULAR HEMOGLOBIN CONCENTRATION [4]: 39.6 G/DL
- MEAN CORPUSCULAR VOLUME [4]: 64.93 fL
- MONOCYTE [4]: 1.33%
- NEUTROPHIL [4]: 9.33%
- NUCLEATED RED BLOOD CELLS [4]: 0 /100WBC
- PLATELET COUNT [4]: 1384.67 x10E3/uL
- ALANINE AMINOTRANSFERASE [4]: 60 u/L
- ALBUMIN [4]: 4.13 G/DL
- ALKALINE PHOSPHATASE [4]: 376.33 u/L
- ASPARTATE AMINOTRANSFERASE [4]: 98.33 u/L
- BLOOD UREA NITROGEN [4]: 15.33 mg/dL
- CARBON DIOXIDE [4]: 33.67 mmol/L
- CHLORIDE [4]: 101 MEQ/L
- CHOLESTEROL [4]: 68.33 mg/dL
- CREATINE PHOSPHOKINASE [4]: 240.33 u/L
- CREATININE [4]: 0.42 mg/dL
- GLUCOSE [4]: 147.33 mg/dL
- LACTATE DEHYDROGENASE [4]: 198 u/L
- LIPASE [4]: 10.67 u/L
- PHOSPHORUS [4]: 14.23 mg/dL
- POTASSIUM [4]: 6.88 MEQ/L
- SODIUM [4]: 148.27 MEQ/L
- TOTAL BILIRUBIN [4]: 0.2 mg/dL
- TOTAL PROTEIN [4]: 6.17 G/DL
- URIC ACID [4]: 1.4 mg/dL
